In ChEMBL document CHEMBL3045805, “Synthesis, characterization, and antimicrobial activity of some new coumarin derivatives” (Med Chem Res, 2012):
≈ marks a conversion by molar mass, not a printed value.

Assays:
Staphylococcus aureus [1] = test: Antibacterial activity against Staphylococcus aureus at 50 ug/ml after 24 hr by agar diffusion method; type: functional; settings: read-out: DIZ
Escherichia coli [2] = test: Antibacterial activity against Escherichia coli after 24 hr; type: functional
Staphylococcus aureus [3] = test: Antibacterial activity against Staphylococcus aureus after 24 hr; type: functional
Klebsiella pneumoniae [4] = test: Antibacterial activity against Klebsiella pneumoniae after 24 hr; type: functional
Escherichia coli [5] = test: Antibacterial activity against Escherichia coli at 50 ug/ml after 24 hr by agar diffusion method; type: functional; settings: read-out: DIZ
Klebsiella pneumoniae [6] = test: Antibacterial activity against Klebsiella pneumoniae at 50 ug/ml after 24 hr by agar diffusion method; type: functional; settings: read-out: DIZ
Staphylococcus aureus [7] = test: Antibacterial activity against Staphylococcus aureus at 1 ug/ml after 24 hr by agar diffusion method; settings: read-out: DIZ
Klebsiella pneumoniae [8] = test: Antibacterial activity against Klebsiella pneumoniae at 1 ug/ml after 24 hr by agar diffusion method; settings: read-out: DIZ

Compound: COc1ccc2c(CNc3ccc4c(C)cc(=O)oc4c3)cc(=O)oc2c1
- zone of inhibition at 50 µg/mL (Staphylococcus aureus [1]): 10 mm
- MIC (Escherichia coli [2]): 45.9 µg/mL (≈ 126 µM)
- MIC (Staphylococcus aureus [3]): 91.9 µg/mL (≈ 253 µM)
- MIC (Klebsiella pneumoniae [4]): 22.9 µg/mL (≈ 63 µM)
- zone of inhibition at 50 µg/mL (Escherichia coli [5]): 12 mm
- zone of inhibition at 50 µg/mL (Klebsiella pneumoniae [6]): 20 mm

Compound: COc1ccc2c(CNc3ccc4c(C)cc(=O)oc4c3)c(Br)c(=O)oc2c1
- zone of inhibition at 50 µg/mL (Staphylococcus aureus [1]): 10 mm
- MIC (Escherichia coli [2]): 46.4 µg/mL (≈ 105 µM)
- MIC (Staphylococcus aureus [3]): 92.8 µg/mL (≈ 210 µM)
- MIC (Klebsiella pneumoniae [4]): 46.4 µg/mL (≈ 105 µM)
- zone of inhibition at 50 µg/mL (Escherichia coli [5]): 11 mm
- zone of inhibition at 50 µg/mL (Klebsiella pneumoniae [6]): 14 mm

Compound: CCOC(=O)c1oc2cc(OC)ccc2c1CNc1ccc2c(C)cc(=O)oc2c1
- zone of inhibition at 50 µg/mL (Staphylococcus aureus [1]): 11 mm
- MIC (Escherichia coli [2]): 51.6 µg/mL (≈ 127 µM)
- MIC (Staphylococcus aureus [3]): > 100 µg/mL
- MIC (Klebsiella pneumoniae [4]): 25.8 µg/mL (≈ 63.3 µM)
- zone of inhibition at 50 µg/mL (Escherichia coli [5]): 11 mm
- zone of inhibition at 50 µg/mL (Klebsiella pneumoniae [6]): 14 mm

Compound: Cc1ccc(S(=O)(=O)NNC(=O)COc2ccc3c(C)cc(=O)oc3c2)cc1
- zone of inhibition at 50 µg/mL (Staphylococcus aureus [1]): 10 mm
- MIC (Escherichia coli [2]): 98.4 µg/mL (≈ 245 µM)
- MIC (Staphylococcus aureus [3]): 98.4 µg/mL (≈ 245 µM)
- MIC (Klebsiella pneumoniae [4]): 49.2 µg/mL (≈ 122 µM)
- zone of inhibition at 50 µg/mL (Escherichia coli [5]): 11 mm
- zone of inhibition at 50 µg/mL (Klebsiella pneumoniae [6]): 10 mm

Compound: Cc1cc(=O)oc2cc(OCC(=O)NNS(=O)(=O)c3ccc(F)cc3)ccc12
- zone of inhibition at 50 µg/mL (Staphylococcus aureus [1]): 9 mm
- MIC (Escherichia coli [2]): 24.1 µg/mL (≈ 59.3 µM)
- MIC (Staphylococcus aureus [3]): 96.6 µg/mL (≈ 238 µM)
- MIC (Klebsiella pneumoniae [4]): 48.3 µg/mL (≈ 119 µM)
- zone of inhibition at 50 µg/mL (Escherichia coli [5]): 12 mm
- zone of inhibition at 50 µg/mL (Klebsiella pneumoniae [6]): 12 mm

Compound: Cc1cc(=O)oc2cc(OCC(=O)NNS(=O)(=O)c3ccc(Cl)cc3)ccc12
- zone of inhibition at 50 µg/mL (Staphylococcus aureus [1]): 9 mm
- MIC (Escherichia coli [2]): 55.3 µg/mL (≈ 131 µM)
- MIC (Staphylococcus aureus [3]): > 100 µg/mL
- MIC (Klebsiella pneumoniae [4]): 27.7 µg/mL (≈ 65.5 µM)
- zone of inhibition at 50 µg/mL (Escherichia coli [5]): 12 mm
- zone of inhibition at 50 µg/mL (Klebsiella pneumoniae [6]): 10 mm

Compound: Cc1cc(=O)oc2cc(OCC(=O)NNS(=O)(=O)c3ccc(Br)cc3)ccc12
- zone of inhibition at 50 µg/mL (Staphylococcus aureus [1]): 14 mm
- MIC (Escherichia coli [2]): 42.6 µg/mL (≈ 91.2 µM)
- MIC (Staphylococcus aureus [3]): 85.1 µg/mL (≈ 182 µM)
- MIC (Klebsiella pneumoniae [4]): 42.6 µg/mL (≈ 91.2 µM)
- zone of inhibition at 50 µg/mL (Escherichia coli [5]): 12 mm
- zone of inhibition at 50 µg/mL (Klebsiella pneumoniae [6]): 11 mm

Compound: Cc1cc(=O)oc2cc(OCC(=O)NNS(=O)(=O)c3cccc([N+](=O)[O-])c3)ccc12
- zone of inhibition at 50 µg/mL (Staphylococcus aureus [1]): 10 mm
- MIC (Escherichia coli [2]): 26 µg/mL (≈ 60 µM)
- MIC (Staphylococcus aureus [3]): > 100 µg/mL
- MIC (Klebsiella pneumoniae [4]): 52 µg/mL (≈ 120 µM)
- zone of inhibition at 50 µg/mL (Escherichia coli [5]): 13 mm
- zone of inhibition at 50 µg/mL (Klebsiella pneumoniae [6]): 14 mm

Compound: Cc1cc(=O)oc2cc(OCC(=O)NNS(=O)(=O)c3ccc(C(F)(F)F)cc3)ccc12
- zone of inhibition at 50 µg/mL (Staphylococcus aureus [1]): 11 mm
- MIC (Escherichia coli [2]): 44.5 µg/mL (≈ 97.5 µM)
- MIC (Staphylococcus aureus [3]): 89.1 µg/mL (≈ 195 µM)
- MIC (Klebsiella pneumoniae [4]): 44.5 µg/mL (≈ 97.5 µM)
- zone of inhibition at 50 µg/mL (Escherichia coli [5]): 13 mm
- zone of inhibition at 50 µg/mL (Klebsiella pneumoniae [6]): 15 mm

Compound: Cc1cc(=O)oc2cc(OCC(=O)NNc3ccnc4c(Cl)cccc34)ccc12
- zone of inhibition at 50 µg/mL (Staphylococcus aureus [1]): 10 mm
- MIC (Escherichia coli [2]): 28.9 µg/mL (≈ 70.5 µM)
- MIC (Staphylococcus aureus [3]): > 100 µg/mL
- MIC (Klebsiella pneumoniae [4]): 57.8 µg/mL (≈ 141 µM)
- zone of inhibition at 50 µg/mL (Escherichia coli [5]): 13 mm
- zone of inhibition at 50 µg/mL (Klebsiella pneumoniae [6]): 13 mm

Compound: O=C(O)c1cn(C2CC2)c2cc(N3CCNCC3)c(F)cc2c1=O [CIPROFLOXACIN]
- zone of inhibition at 1 µg/mL (Staphylococcus aureus [7]): 24 mm
- MIC (Escherichia coli [2]): 0.6 µg/mL (≈ 1.81 µM)
- MIC (Staphylococcus aureus [3]): 0.6 µg/mL (≈ 1.81 µM)
- MIC (Klebsiella pneumoniae [4]): 1.3 µg/mL (≈ 3.92 µM)
- zone of inhibition at 1 µg/mL (Klebsiella pneumoniae [8]): 20 mm
